Experimental findings from ChEMBL document CHEMBL3400078, “Constituents of the stem barks of Ailanthus altissima and their potential to inhibit LPS-induced nitric oxide production” (Bioorg Med Chem Lett, 2015) are described below.

Molecules are shown by their SMILES. A value given as a limit tells only on which side of the number the result lay.

The assay concerns RAW264.7. The assay can be described thus: Antiinflammatory activity in mouse RAW264.7 cells assessed as decrease in LPS-induced NO production after 24 hrs by Griess assay. As to conditions: RAW264.7, 24 h. It counts as functional, cell-based. In general terms: Griess reagent forms a coloured azo dye with nitrite.

In the case of `COc1cc(/C=C/C(=O)O)ccc1O` [FERULATE], the IC50 – broadly, the point on the concentration scale where inhibition reaches its midpoint – was more than 100 µM. For `CC1=CC(=O)[C@@H](O)[C@]2(C)[C@H]3[C@@]4(O)C(=O)OC[C@@]35[C@@H](C[C@@H]12)OC(=O)C[C@H]5[C@H]4C` [SHINJUDILACTONE] the value was 63.1 µM; for `O=c1ccc2ncc(O[C@@H]3O[C@H](CO)[C@@H](O)[C@H](O)[C@H]3O[C@@H]3OC[C@](O)(CO)[C@H]3O)c3c4ccccc4n1c23`, 63.5 µM; for `COc1cc(C(=O)O)ccc1O` [VANILLIC ACID], 23.2 µM. For the compound `C=C1[C@H](O)[C@]2(O)OC[C@]34[C@H]2[C@@]2(C)[C@H](O)[C@@H](O)C=C(C)[C@@H]2C[C@H]3OC(=O)C[C@@H]14` [SHINJULACTONE A], the IC50 was 56.4 µM. Take `O=C(O)/C=C/c1ccc(O)cc1` [COUMARIC ACID]: the IC50 was 73.4 µM. For `CC(=N)NCCCC[C@H](N)C(=O)O` [L-NIL], the IC50 amounted to 15.8 µM. On to `COc1cc(C(=O)CCO)ccc1O`, for which the IC50 was 43.8 µM. Consider `COc1cc2ccc(=O)oc2c(OC)c1O`, for which the concentration for half-maximal inhibition (IC50) was more than 100 µM. For `C[C@@](O)(CC(=O)O)CC(=O)OC[C@H]1O[C@@H](Oc2cnc3ccc(=O)n4c5ccccc5c2c34)[C@H](O)[C@@H](O)[C@@H]1O`, the IC50 came out at 85 µM.

With `O=C(O)c1ccc(O)cc1` [PARABEN], the IC50 is 72.8 µM. In the case of `C=C1[C@@H](O)[C@]2(O)OC[C@]34[C@H]2[C@@]2(C)[C@H](O)[C@@H](O[C@@H]5O[C@H](CO)[C@@H](O)[C@H](O)[C@H]5O)C=C(C)[C@@H]2C[C@H]3OC(=O)C[C@@H]14`, the IC50 came to 100 µM. On to `COc1cc(/C=C/C(=O)O)ccc1O[C@@H]1O[C@H](CO)[C@@H](O)[C@H](O)[C@H]1O`, for which the IC50 is 71.6 µM. Take `C[C@@](O)(CC(=O)O)CC(=O)OC[C@H]1O[C@@H](Oc2cnc3ccc(=O)n4c5ccccc5c2c34)[C@H](O[C@@H]2OC[C@](O)(CO)[C@H]2O)[C@@H](O)[C@@H]1O`: the IC50 is more than 100 µM. For `COc1cc([C@H]2OC[C@H]3[C@@H]2CO[C@@H]3c2cc(OC)c(O)c(OC)c2)cc(OC)c1O` [SYRINGARESINOL], the IC50 worked out at 21.6 µM.
